# Molecular target: T1, hFXR (Homo sapiens, UniProt Q96RI1)
# T1 construct: expressed in transfected cells; host or cells: CV-1 cells
# T1 sequence (Q96RI1 1-486): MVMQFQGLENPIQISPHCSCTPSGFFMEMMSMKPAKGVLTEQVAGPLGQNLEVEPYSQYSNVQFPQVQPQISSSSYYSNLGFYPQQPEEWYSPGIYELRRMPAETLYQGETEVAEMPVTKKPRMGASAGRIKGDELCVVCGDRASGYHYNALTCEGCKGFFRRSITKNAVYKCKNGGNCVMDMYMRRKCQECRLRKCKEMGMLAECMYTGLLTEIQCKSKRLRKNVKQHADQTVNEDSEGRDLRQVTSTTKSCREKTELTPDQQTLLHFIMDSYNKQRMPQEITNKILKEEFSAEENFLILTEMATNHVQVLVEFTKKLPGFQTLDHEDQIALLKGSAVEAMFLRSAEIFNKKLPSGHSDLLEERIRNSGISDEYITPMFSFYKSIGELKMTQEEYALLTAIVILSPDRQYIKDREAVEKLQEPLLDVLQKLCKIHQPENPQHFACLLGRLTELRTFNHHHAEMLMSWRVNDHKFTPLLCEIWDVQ
# T1 sequence (P19793 1-462 partner): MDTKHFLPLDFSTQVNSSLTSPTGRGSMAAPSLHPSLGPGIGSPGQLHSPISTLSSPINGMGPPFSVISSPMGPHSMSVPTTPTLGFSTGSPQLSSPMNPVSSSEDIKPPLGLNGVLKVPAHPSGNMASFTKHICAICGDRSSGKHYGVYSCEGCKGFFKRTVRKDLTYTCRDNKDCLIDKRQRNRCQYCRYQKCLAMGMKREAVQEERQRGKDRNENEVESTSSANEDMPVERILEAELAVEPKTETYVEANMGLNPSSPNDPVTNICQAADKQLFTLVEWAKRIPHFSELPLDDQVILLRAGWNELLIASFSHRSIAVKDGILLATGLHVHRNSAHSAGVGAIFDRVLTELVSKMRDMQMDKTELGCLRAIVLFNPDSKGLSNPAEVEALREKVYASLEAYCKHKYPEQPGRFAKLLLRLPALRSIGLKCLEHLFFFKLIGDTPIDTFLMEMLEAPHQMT
# Test: In Vitro FXR Assay (TK): hFXR/hRXR TK-ECRE-luc reporter in transfected CV-1 cells
# Type: cell-based
# Details: CV-1 cells transfected with hFXR, hRXR, 18 hrs incubation, luminescence, maximum efficacy <25% of Fexarmine control also classified as ‘+’
# Description: Example B-1: In Vitro FXR Assay (TK)
# CV-1 cells were seeded at a density of 2,000,000 cells in a T175 flask with DMEM+10% charcoal double-stripped FBS and incubated at 37° C. in 5% CO2 for 18 h (O/N).
# After 18 h of incubation, the medium in the T175 flask was changed with fresh DMEM+10% charcoal super-stripped serum. In a polypropylene tube, 2500 μL OptiMEM (Life Technologies, Cat #31985-062) was combined with expression plasmids for hFXR, hRXR, TK-ECRE-luc and pCMX-YFP. The tube was then briefly vortexed and incubated at room temperature for 5 minutes. Transfection reagent (X-tremeGENE HP from Roche, Cat #06 366 236 001) was added to the OptiMEM/plasmid mixture vortexed and incubated at room temperature for 20 minutes. Following incubation, the transfection reagent/DNA mixture complex was added to cells in the T175 flask and the cells were incubated at 37° C. in 5% CO2 for 18 h (0/N).
# Compounds were serially diluted in DMSO and added to transfected CV-1 cells. The cells were then incubated for 18 hrs. The next day cells were lysed and examined for luminescence.
row,SMILES,EC50
1,"COc1ccc([C@H]2CC[C@H](CN(c3cccc(-c4cc(C)on4)c3)C(=O)[C@H]3CC[C@H](O)CC3)CC2)cc1C [Compound 9.08, trans-4-Hydroxy-N-((trans-4-(4-methoxy-3-methylphenyl)cyclohexyl)methyl)-N-(3-(5-methylisoxazol-3-yl)phenyl)cyclohexanecarboxamide]",≤ 500 nM
2,"COc1ccc([C@H]2CC[C@H](CN(c3cccc(-n4cc(C)nn4)c3)C(=O)[C@H]3CC[C@H](O)CC3)CC2)cc1C [Compound 9.09, trans-4-Hydroxy-N-((trans-4-(4-methoxy-3-methylphenyl)cyclohexyl)methyl)-N-(3-(4-methyl-1H-1,2,3-triazol-1-yl)phenyl)cyclohexanecarboxamide]",≥ 1000 nM
3,"COc1ccc([C@H]2CC[C@H](CN(c3cccc(-n4ncc(C)n4)c3)C(=O)[C@H]3CC[C@H](O)CC3)CC2)cc1C [Compound 9.10, trans-4-Hydroxy-N-((trans-4-(4-methoxy-3-methylphenyl)cyclohexyl)methyl)-N-(3-(4-methyl-2H-1,2,3-triazol-2-yl)phenyl)cyclohexanecarboxamide]",≥ 1000 nM
4,"COc1ccc([C@H]2CC[C@H](CN(c3cccc(-c4noc(C)n4)c3)C(=O)[C@H]3CC[C@H](O)CC3)CC2)cc1C [Compound 9.11, trans-4-Hydroxy-N-((trans-4-(4-methoxy-3-methylphenyl)cyclohexyl)methyl)-N-(3-(5-methyl-1,2,4-oxadiazol-3-yl)phenyl)cyclohexanecarboxamide]",500 to 1000 nM
5,"COc1ccc([C@H]2CC[C@H](CN(c3cccc(-c4cnc(C5CC5)o4)c3)C(=O)[C@H]3CC[C@H](O)CC3)CC2)cc1C [Compound 9.12, trans-N-(3-(2-Cyclopropyloxazol-5-yl)phenyl)-4-hydroxy-N-((trans-4-(4-methoxy-3-methylphenyl)cyclohexyl)methyl) cyclohexanecarboxamide]",≤ 500 nM
6,"COc1ccc([C@H]2CC[C@H](CN(c3cccc(-c4cc(C5CC5)no4)c3)C(=O)[C@H]3CC[C@H](O)CC3)CC2)cc1C [Compound 9.13, trans-N-(3-(3-cyclopropylisoxazol-5-yl)phenyl)-4-hydroxy-N-((trans-4-(4-methoxy-3-methylphenyl)cyclohexyl)methyl) cyclohexanecarboxamide]",≤ 500 nM
7,"COc1ccc([C@H]2CC[C@H](CN(c3cccc(-c4cc(C5CC5)on4)c3)C(=O)[C@H]3CC[C@H](O)CC3)CC2)cc1C [Compound 9.14, trans-N-(3-(5-Cyclopropylisoxazol-3-yl)phenyl)-4-hydroxy-N-((trans-4-(4-methoxy-3-methylphenyl)cyclohexyl)methyl) cyclohexanecarboxamide]",≤ 500 nM
8,COc1ccc([C@H]2CC[C@H](CN(c3cccc(-c4coc(C5CC5)n4)c3)C(=O)[C@H]3CC[C@H](O)CC3)CC2)cc1C [Compound 9.15],≤ 500 nM
9,"COc1ccc(C23CCC(CN(c4cccc(-c5cc(C6CC6)ns5)c4)C(=O)[C@H]4CC[C@H](O)CC4)(CC2)CC3)cc1C [Compound 10.01, trans-N-(3-(3-Cyclopropylisothiazol-5-yl)phenyl)-4-hydroxy-N-((4-(4-methoxy-3-methylphenyl)bicyclo[2.2.2]octan-1-yl)methyl)cyclohexanecarboxamide]",≤ 500 nM
10,"CN(C)c1ccc([C@H]2CC[C@H](CN(c3cccc(-c4coc(C5CC5)n4)c3)C(=O)[C@H]3CC[C@H](O)CC3)CC2)cn1 [Compound 10.02, trans-N-(3-(2-Cyclopropyloxazol-4-yl)phenyl)-N-((trans-4-(6-(dimethylamino)pyridine-3-yl)cyclohexyl)methyl)-4-hydroxycyclohexanecarboxamide]",≤ 500 nM
11,"CN(C)c1ccc(C23CCC(CN(c4cccc(-c5coc(C6CC6)n5)c4)C(=O)[C@H]4CC[C@H](O)CC4)(CC2)CC3)cn1 [Compound 10.03, trans-N-(3-(2-Cyclopropyloxazol-4-yl)phenyl)-N-((4-(6-(dimethylamino)pyridine-3-yl)bicyclo[2.2.2]octan-1-yl)methyl)-4-hydroxycyclohexanecarboxamide]",≤ 500 nM
12,"COc1ccc([C@H]2CC[C@H](CN(c3cccc(-c4coc(C(C)C)n4)c3)C(=O)[C@H]3CC[C@H](O)CC3)CC2)cc1C [Compound 10.04, trans-4-Hydroxy-N-(3-(2-isopropyloxazol-4-yl)phenyl)-N-((trans-4-(4-methoxy-3-methylphenyl)cyclohexyl)methyl) cyclohexanecarboxamide]",≤ 500 nM
13,"COc1ccc([C@H]2CC[C@H](CN(c3cccc(-c4coc(C(C)C)n4)c3)C(=O)[C@H]3CC[C@H](O)CC3)CC2)nc1C [Compound 10.05, trans-4-Hydroxy-N-(3-(2-isopropyloxazol-4-yl)phenyl)-N-((trans-4-(5-methoxy-6-methylpyridin-2-yl)cyclohexyl)methyl) cyclohexanecarboxamide]",≤ 500 nM
14,"COc1ccc([C@H]2CC[C@H](CN(c3cccc(-c4coc(C5CC5)n4)c3)C(=O)[C@H]3CC[C@H](O)CC3)CC2)nc1C [Compound 10.06, trans-N-(3-(2-Cyclopropyloxazol-4-yl)phenyl)-4-hydroxy-N-((trans-4-(5-methoxy-6-methylpyridin-2-yl)cyclohexyl)methyl) cyclohexanecarboxamide]",≤ 500 nM
15,"COc1ccc([C@H]2CC[C@H](CN(c3cc(-c4coc(C5CC5)n4)ccn3)C(=O)[C@H]3CC[C@H](O)CC3)CC2)cc1C [Compound 10.07, trans-N-(4-(2-Cyclopropyloxazol-4-yl)pyridine-2-yl)-4-hydroxy-N-((trans-4-(4-methoxy-3-methylphenyl)cyclohexyl)methyl) cyclohexanecarboxamide]",≤ 500 nM
16,"COc1ccc([C@H]2CC[C@H](CN(c3cccc(-c4cc(C5CC5)ns4)c3)C(=O)[C@H]3CC[C@H](O)CC3)CC2)nc1C [Compound 10.08, trans-N-(3-(3-Cyclopropylisothiazol-5-yl)phenyl)-4-hydroxy-N-((trans-4-(5-methoxy-6-methylpyridin-2-yl)cyclohexyl)methyl) cyclohexanecarboxamide]",≤ 500 nM
17,"COc1ccc([C@H]2CC[C@H](CN(c3cc(-c4coc(C5CC5)n4)ccn3)C(=O)[C@H]3CC[C@H](O)CC3)CC2)nc1C [Compound 10.09, trans-N-(4-(2-Cyclopropyloxazol-4-yl)pyridine-2-yl)-4-hydroxy-N-((trans-4-(5-methoxy-6-methylpyridin-2-yl)cyclohexyl)methyl) cyclohexanecarboxamide]",≤ 500 nM
18,"COc1ccc([C@H]2CC[C@@H](CN(c3cccc(-c4coc(C5CC5)n4)c3)C(=O)[C@H]3CC[C@H](O)CC3)CC2)nc1C [Compound 10.10, trans-N-(3-(2-Cyclopropyloxazol-4-yl)phenyl)-4-hydroxy-N-((cis-4-(5-methoxy-6-methylpyridin-2-yl)cyclohexyl)methyl) cyclohexanecarboxamide]",≥ 1000 nM
19,"COc1ccc([C@H]2CC[C@H](CN(c3cccc(-c4coc(C5CC5)n4)c3)C(=O)[C@H]3CC[C@H](O)CC3)CC2)cc1C#N [Compound 10.11, trans-N-((trans-4-(3-Cyano-4-methoxyphenyl)cyclohexyl)methyl)-N-(3-(2-cyclopropyloxazol-4-yl)phenyl)-4-hydroxycyclohexanecarboxamide]",≤ 500 nM
20,"COc1ccc([C@H]2CC[C@H](CN(c3cc(-c4coc(C5CC5)n4)ccn3)C(=O)[C@H]3CC[C@H](O)CC3)CC2)cc1C#N [Compound 10.12, trans-N-((trans-4-(3-Cyano-4-methoxyphenyl)cyclohexyl)methyl)-N-(4-(2-cyclopropyloxazol-4-yl)pyridine-2-yl)-4-hydroxycyclohexanecarboxamide]",≤ 500 nM
21,"COc1ccc([C@H]2CC[C@H](CN(c3cc(-c4coc(C(C)C)n4)ccn3)C(=O)[C@H]3CC[C@H](O)CC3)CC2)cc1C [Compound 10.13, trans-4-Hydroxy-N-(4-(2-isopropyloxazol-4-yl)pyridine-2-yl)-N-((trans-4-(4-methoxy-3-methylphenyl)cyclohexyl)methyl) cyclohexanecarboxamide]",≤ 500 nM
